Data taken from US20190262321A1, “METHODS OF TREATING DIABETIC NEPHROPATHY USING HPTPB INHIBITORS” (Aerpio Therapeutics, Inc., priority 2018, published 2019).

How the values were obtained:
Male C57BL6 mice [1] = assay: Renal vascular leak after LPS (fluorescent dextrans, tomato lectin); type: in vivo; settings: 24 h after LPS
Experimental: Male C57BL6 mice, 9-10 weeks old, were injected i.p. with 0.2 mg E. coli LPS per 25 g body weight. The mice were injected with compound AA34 (50 mg/kg, 50 μL) or the vehicle (50 μL) at the time of lipopolysaccharide (LPS) injection, 8 after LPS injection, and 16 hours after LPS injection. The mice were sacrificed 24 h after the LPS injection. The saline-injected mice were studied in parallel as controls. Mice were injected with LPS and drug (compound AA34) versus the vehicle (LPS only). 2 min prior to sacrificing the animals at 24 h, the mice were injected with 70 kDa and 500 kDa fluorescent fixable dextrans by intravenous catheter.

TNFR1 = assay: RT-PCR of kidney homogenate after LPS: TNFR1; type: in vivo, mice; settings: versus vehicle
Experimental: (§1) Male C57BL6 mice, 9-10 weeks old, were injected i.p. with 0.2 mg E. coli LPS per 25 g body weight. The mice were injected with compound AA34 (50 mg/kg, 50 μL) or the vehicle (50 μL) at the time of lipopolysaccharide (LPS) injection, 8 after LPS injection, and 16 hours after LPS injection. The mice were sacrificed 24 h after the LPS injection. The saline-injected mice were studied in parallel as controls. Phosphatase inhibition by compound AA34 reduced renal mRNA expression of various mediators of inflammation and coagulation, as shown in FIG. 8. The kidneys of the mice were analyzed for RNA level expression of various inflammatory mediators. […] TNFR1, PAI-1, and tissue factor were expressed mainly in the endothelium, the site of Tie2 expression.

Male C57BL6 mice [2] = assay: Endotoxin (LPS)-induced acute kidney injury: serum BUN and kidney histology; type: in vivo
Experimental: (§2) Male C57BL6 mice, 9-10 weeks old, were injected i.p. with 0.2 mg E. coli LPS per 25 g body weight. The mice were injected with compound AA34 (50 mg/kg, 50 μL) or the vehicle (50 μL) at the time of lipopolysaccharide (LPS) injection, 8 after LPS injection, and 16 hours after LPS injection. The mice were sacrificed 24 h after the LPS injection. The saline-injected mice were studied in parallel as controls. Serum samples from the mice were analyzed for BUN as a marker of kidney function.

Tie2 = assay: Immunoprecipitation of kidney homogenate for Tie2 phosphorylation after LPS; type: in vivo, mice
Experimental: Male C57BL6 mice, 9-10 weeks old, were injected i.p. with 0.2 mg E. coli LPS per 25 g body weight. The mice were injected with compound AA34 (50 mg/kg, 50 μL) or the vehicle (50 μL) at the time of lipopolysaccharide (LPS) injection, 8 after LPS injection, and 16 hours after LPS injection. The mice were sacrificed 24 h after the LPS injection. The saline-injected mice were studied in parallel as controls. Immunoprecipitation of kidney homogenate was performed to analyze the extent of Tie2 phosphorylation in the drug versus vehicle groups. Immunoprecipitation of kidney homogenate was completed using anti-Tie2 Ab, which was probed using anti-phosphotyrosine Ab. Total Tie2 levels were equal in the drug-treated and vehicle-treated groups after being injected with LPS.

[3] = tested on: inducible nitric oxide synthase (iNOS); assay: RT-PCR of kidney homogenate after LPS: iNOS; type: in vivo, mice; settings: versus vehicle
Experimental: as §1

Male C57BL6 mice [4] = assay: LPS-induced renal neutrophil infiltration; type: in vivo; settings: 24 h after LPS injection
Experimental: as §2, with “controls.” for “controls. Serum samples from the mice were analyzed for BUN as a marker of kidney function.”

tissue factor = assay: RT-PCR of kidney homogenate after LPS: tissue factor; type: in vivo, mice; settings: versus vehicle
Experimental: as §1

Male C57BL6 mice [5] = assay: Renal apoptosis after LPS (DNA laddering, TUNEL staining); type: in vivo; settings: versus vehicle
Experimental: as §2, with “Apoptosis was detected in kidney homogenate using DNA laddering, which is” for “Serum samples from”, “result” for “mice were analyzed for BUN as a marker”, “apoptotic DNA fragmentation. […] Terminal deoxynucleotidyl transferase dUTP nick end labeling (TUNEL) staining was used to visualize the presence of apoptotic nuclei.” for “kidney function.”

[6] = tested on: plasminogen activator inhibitor-1 (PAI-1); assay: RT-PCR of kidney homogenate after LPS: PAI-1; type: in vivo, mice; settings: versus vehicle
Experimental: as §1

human subjects = assay: Assessment of renal function indices (UACR) in subjects treated with compound AA34; type: in vivo; settings: for % Change in Geometric Mean (UACR): baseline to end of treatment (three months), patients with albuminuria at baseline
Experimental: The human subjects treated with compound AA34 were administered 15 mg of the compound subcutaneously twice a day for three months. One group of subjects received the compound and ranibizumab (RBZ; 0.3 mg monthly via intraocular injection), while the other group received only the compound with a sham intraocular injection. The subjects in the placebo arm received a placebo subcutaneously twice a day along with ranibizumab. […] Within the subjects that had albuminuria, 30% had microalbuminuria (>30 mg/g and <300 mg/g UACR) and 20% had macroalbuminuria (>300 mg/g UACR).
The results of the study are shown in FIG. 2 and TABLE 2 as the % change from baseline to end of treatment (three months) in geometric mean +95% confidence interval in the patients with albuminuria at baseline.

[7] = Baseline UACR 30-300 mg/g (n 31)

Structure (SMILES): COC(=O)N[C@@H](Cc1ccccc1)C(=O)N[C@@H](Cc1ccc(NS(=O)(=O)O)cc1)c1csc(-c2cccs2)n1 [AA34]
- LPS-induced extrusion of dye beyond the small peritubular capillaries (vascular leak) (Male C57BL6 mice [1]; 70 kDa and 500 kDa fluorescent fixable dextrans): markedly reduced
- tomato lectin staining of peritubular capillaries (vascular integrity) (Male C57BL6 mice [1]): relatively preserved
- reduction of renal mRNA expression of TNFR1 (TNFR1): about 6 fold
- morphologic tubular injury (histology) (Male C57BL6 mice [2]; 24 h after LPS injection, drug versus vehicle): less morphologic tubular injury
- LPS-induced rise in BUN (Male C57BL6 mice [2]; serum, 24 h after LPS, 50 mg/kg at 0, 8 and 16 hours, versus vehicle, p=0.002): statistically reduced
- tyrosine phosphorylated Tie2 in kidney homogenate (Tie2; LPS+Compound AA34 versus LPS+vehicle, 8 h after the last dose): increased levels
- Total Tie2 levels in kidney homogenate (Tie2; drug-treated versus vehicle-treated groups after LPS): equal
- reduction of renal mRNA expression of iNOS [3]: about 1.5 fold
- reduction of renal neutrophil infiltration (Male C57BL6 mice [4]): over 50%
- reduction of renal mRNA expression of tissue factor (tissue factor): about 0.8 fold
- DNA laddering (apoptosis) in kidney homogenate (Male C57BL6 mice [5]): less DNA laddering
- apoptosis (TUNEL staining of apoptotic nuclei) (Male C57BL6 mice [5]): less apoptosis
- reduction of renal mRNA expression of PAI-1 [6]: about 5 fold
- shift analysis: subjects with UACR 30-300 at Month 3/EOT (human subjects; [7]): 25 (81%)
- shift analysis: subjects with UACR <30 at Month 3/EOT (human subjects; [7]): 4 (13%)
- shift analysis: subjects with UACR >300 at Month 3/EOT (human subjects; [7]): 2 (6%)
- shift analysis: subjects with UACR 30-300 at Month 3/EOT (human subjects; Baseline UACR <30 mg/g (n 43)): 2 (5%)
- shift analysis: subjects with UACR <30 at Month 3/EOT (human subjects; Baseline UACR <30 mg/g (n 43)): 41 (95%)
- shift analysis: subjects with UACR >300 at Month 3/EOT (human subjects; Baseline UACR <30 mg/g (n 43)): 0
- shift analysis: subjects with UACR 30-300 at Month 3/EOT (human subjects; Baseline UACR >300 mg/g (n 18)): 1 (6%)
- shift analysis: subjects with UACR <30 at Month 3/EOT (human subjects; Baseline UACR >300 mg/g (n 18)): 1 (6%)
- shift analysis: subjects with UACR >300 at Month 3/EOT (human subjects; Baseline UACR >300 mg/g (n 18)): 16 (89%)
- % Change in Geometric Mean (UACR) (human subjects; 15 mg subcutaneously twice a day): −17.7%
- % Change in Geometric Mean (UACR) (human subjects; 15 mg subcutaneously twice a day, listed as All Compound): −21.2%
- reduction in the UACR compared to patients receiving placebo (human subjects; three months, 15 mg subcutaneously twice a day): ~20%
